± gives the standard deviation of the averaged measurements.
Test: TIMS collisional cross section (CCS, N2) of the lipid ion; higher = larger ion cross section
Details: ionization mode: positive, one isomer drawn

| TIMS collisional cross section (sample type: HeLa) | TIMS collisional cross section (sample type: Liver) | TIMS collisional cross section (sample type: plasma) | Structure (SMILES) |
| --- | --- | --- | --- |
| 319.4 Å² | 319.35 ± 0.21 Å² | 319.3 Å² | CCCCCCC/C=C\CCCCCCCC(=O)O[C@@H](COC(=O)CCCCCCC/C=C\CCCCCCCC)COC(=O)CCCCCCCCCCCCCCC [TG 16:0_17:1_18:1] (ion (formula + adduct): [C54H100O6+NH4] 1+) |
|  | 316 Å² | 317.8 Å² | CCCCC/C=C\C/C=C\CCCCCCCC(=O)OC[C@@H](COC(=O)CCCCCCCCCCCCCCC)OC(=O)CCCCCCC/C=C\CCCCCCC [TG 16:0_17:1_18:2] (ion (formula + adduct): [C54H98O6+NH4] 1+) |
| 321.4 Å² |  |  | CCCCC/C=C\C/C=C\C/C=C\C/C=C\CCCC(=O)OC[C@@H](COC(=O)CCCCCCCCCCCCCCC)OC(=O)CCCCCCC/C=C\CCCCCCC [TG 16:0_17:1_20:4] (ion (formula + adduct): [C56H98O6+NH4] 1+) |
| 325.4 Å² |  |  | CC/C=C\C/C=C\C/C=C\C/C=C\C/C=C\CCCCCC(=O)OC[C@@H](COC(=O)CCCCCCCCCCCCCCC)OC(=O)CCCCCCC/C=C\CCCCCCC [TG 16:0_17:1_22:5] (ion (formula + adduct): [C58H100O6+NH4] 1+) |
| 324.8 Å² |  |  | CC/C=C\C/C=C\C/C=C\C/C=C\C/C=C\C/C=C\CCC(=O)OC[C@@H](COC(=O)CCCCCCCCCCCCCCC)OC(=O)CCCCCCC/C=C\CCCCCCC [TG 16:0_17:1_22:6] (ion (formula + adduct): [C58H98O6+NH4] 1+) |
| 330.6 Å² |  |  | CC/C=C\C/C=C\C/C=C\C/C=C\C/C=C\CCCCCC(=O)OC[C@@H](COC(=O)CCCCCCCCCCCCCCC)OC(=O)CCCCCCCCCCCCCCCCC [TG 16:0_18:0_22:5] (ion (formula + adduct): [C59H104O6+NH4] 1+) |
|  | 314.1 Å² | 319.7 Å² | CCCCC/C=C\C/C=C\CCCCCCCC(=O)OC[C@@H](COC(=O)CCCCCCCCCCCCCCC)OC(=O)CCCCCCC/C=C\CCCCCCCC [TG 16:0_18:1_18:2] (ion (formula + adduct): [C55H100O6+NH4] 1+) |
| 324.5 Å² |  | 324.2 Å² | CCCCC/C=C\C/C=C\C/C=C\C/C=C\CCCC(=O)OC[C@@H](COC(=O)CCCCCCCCCCCCCCC)OC(=O)CCCCCCC/C=C\CCCCCCCC [TG 16:0_18:1_20:4] (ion (formula + adduct): [C57H100O6+NH4] 1+) |
|  |  | 329.9 Å² | CCCCC/C=C\C/C=C\C/C=C\C/C=C\CCCCCC(=O)OC[C@@H](COC(=O)CCCCCCCCCCCCCCC)OC(=O)CCCCCCC/C=C\CCCCCCCC [TG 16:0_18:1_22:4] (ion (formula + adduct): [C59H104O6+NH4] 1+) |
| 328.5 Å² |  |  | CC/C=C\C/C=C\C/C=C\C/C=C\C/C=C\CCCCCC(=O)OC[C@@H](COC(=O)CCCCCCCCCCCCCCC)OC(=O)CCCCCCC/C=C\CCCCCCCC [TG 16:0_18:1_22:5] (ion (formula + adduct): [C59H102O6+NH4] 1+) |
|  |  | 315.8 Å² | CC/C=C\C/C=C\C/C=C\CCCCCCCC(=O)OC[C@@H](COC(=O)CCCCCCCCCCCCCCC)OC(=O)CCCCCCC/C=C\C/C=C\CCCCC [TG 16:0_18:2_18:3] (ion (formula + adduct): [C55H96O6+NH4] 1+) |

Second part, the compound before the results:

| Structure (SMILES) | TIMS collisional cross section (sample type: HeLa) | TIMS collisional cross section (sample type: Liver) | TIMS collisional cross section (sample type: plasma) |
| --- | --- | --- | --- |
| CCCCCCCCCCCCCCCCCC(=O)OC[C@@H](COC(=O)CCCCCCCCCCCCCCC)OC(=O)CCCCCCCCCCCCCCCCC [TG 16:0_18:0_18:0] (ion (formula + adduct): [C55H106O6+NH4] 1+) |  | 326.7 Å² | 326.7 Å² |
| CCCCCCCC/C=C\CCCCCCCC(=O)OC[C@@H](COC(=O)CCCCCCCCCCCCCCC)OC(=O)CCCCCCCCCCCCCCCCC [TG 16:0_18:0_18:1] (ion (formula + adduct): [C55H104O6+NH4] 1+) | 324.4 Å² | 324.5 ± 0.14 Å² | 324.45 ± 0.35 Å² |
| CCCCCCCCCCCCCCCCCCC(=O)OC[C@@H](COC(=O)CCCCCCCCCCCCCCC)OC(=O)CCCCCCCCCCCCCCCCC [TG 16:0_18:0_19:0] (ion (formula + adduct): [C56H108O6+NH4] 1+) |  | 329.3 Å² | 329 Å² |
| CCCCCCCCCCCCCCCCCCCC(=O)OC[C@@H](COC(=O)CCCCCCCCCCCCCCC)OC(=O)CCCCCCCCCCCCCCCCC [TG 16:0_18:0_20:0] (ion (formula + adduct): [C57H110O6+NH4] 1+) | 332.05 ± 0.21 Å² |  | 332.5 ± 0.14 Å² |
| CCCCCCCC/C=C\CCCCCCCCCC(=O)OC[C@@H](COC(=O)CCCCCCCCCCCCCCC)OC(=O)CCCCCCCCCCCCCCCCC [TG 16:0_18:0_20:1] (ion (formula + adduct): [C57H108O6+NH4] 1+) | 330.3 Å² |  |  |
| CCCCCCCCCCCCCCCCCCCCCC(=O)OC[C@@H](COC(=O)CCCCCCCCCCCCCCC)OC(=O)CCCCCCCCCCCCCCCCC [TG 16:0_18:0_22:0] (ion (formula + adduct): [C59H114O6+NH4] 1+) | 337.8 Å² | 338.3 Å² | 337.55 ± 0.21 Å² |
| CCCCCCCC/C=C\CCCCCCCC(=O)OC[C@@H](COC(=O)CCCCCCCCCCCCCCC)OC(=O)CCCCCCC/C=C\CCCCCCCC [TG 16:0_18:1_18:1] (ion (formula + adduct): [C55H102O6+NH4] 1+) | 322 Å² | 322.4 Å² | 322.45 ± 0.21 Å² |
| CCCCCCCC/C=C\CCCCCCCC(=O)O[C@@H](COC(=O)CCCCCCC/C=C\CCCCCCCCC)COC(=O)CCCCCCCCCCCCCCC [TG 16:0_18:1_19:1] (ion (formula + adduct): [C56H104O6+NH4] 1+) | 325.5 Å² |  |  |
| CCCCCCCC/C=C\CCCCCCCC(=O)O[C@H](COC(=O)CCCCCCCCCCCCCCC)COC(=O)CCCCCCCCCCCCCCCCCCC [TG 16:0_18:1_20:0] (ion (formula + adduct): [C57H108O6+NH4] 1+) |  | 330.6 Å² |  |
| CCCCCCCC/C=C\CCCCCCCCCC(=O)OC[C@@H](COC(=O)CCCCCCCCCCCCCCC)OC(=O)CCCCCCC/C=C\CCCCCCCC [TG 16:0_18:1_20:1] (ion (formula + adduct): [C57H106O6+NH4] 1+) | 328.4 Å² |  |  |
| CCCCCCCC/C=C\CCCCCCCC(=O)O[C@H](COC(=O)CCCCCCCCCCCCCCC)COC(=O)CCCCCCCCCCCCCCCCCCCC [TG 16:0_18:1_21:0] (ion (formula + adduct): [C58H110O6+NH4] 1+) |  | 333 Å² | 333.1 Å² |
| CCCCCCCC/C=C\CCCCCCCC(=O)O[C@H](COC(=O)CCCCCCCCCCCCCCC)COC(=O)CCCCCCCCCCCCCCCCCCCCC [TG 16:0_18:1_22:0] (ion (formula + adduct): [C59H112O6+NH4] 1+) | 335.9 Å² | 336.3 Å² |  |
| CCCCCCCC/C=C\CCCCCCCCCCCC(=O)OC[C@@H](COC(=O)CCCCCCCCCCCCCCC)OC(=O)CCCCCCC/C=C\CCCCCCCC [TG 16:0_18:1_22:1] (ion (formula + adduct): [C59H110O6+NH4] 1+) |  | 334.2 Å² |  |
